Laboratory results taken from the supplement of paper PMC11451515.

System: P12-Ichikawa
Test: cell viability relative to DMSO control; higher = less cytotoxic
Conditions: 48 h
Outline: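 NOMO1, SEM and P12-Ichikawa leukemia cells spent at least four passages adapting to each medium before use. They were seeded at 500 cells/well (NOMO1, SEM) or 1000 cells/well (P12-Ichikawa) in 5 μl in 1536-well plates and pin-dosed with library compounds in DMSO at 11 threefold steps from 47 μM down to 0.79 nM. After 48 h at 37°C, CellTiter-Glo One luminescence was read. Viability is reported as a percentage of the DMSO wells on each plate, with cell-free wells as background.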

[1] = HPLM + 10% dialyzed FBS, 0.000781 µM
[2] = HPLM + 10% dialyzed FBS, 0.00234 µM
[3] = HPLM + 10% dialyzed FBS, 0.00702 µM
[4] = HPLM + 10% dialyzed FBS, 0.0211 µM
[5] = HPLM + 10% dialyzed FBS, 0.0632 µM
[6] = HPLM + 10% dialyzed FBS, 0.19 µM
[7] = HPLM + 10% dialyzed FBS, 0.569 µM
[8] = HPLM + 10% dialyzed FBS, 1.71 µM
[9] = HPLM + 10% dialyzed FBS, 5.12 µM
[10] = HPLM + 10% dialyzed FBS, 15.4 µM
[11] = HPLM + 10% dialyzed FBS, 46.1 µM
[12] = RPMI 5 mM glucose + 10% FBS, 0.000781 µM
[13] = RPMI 5 mM glucose + 10% FBS, 0.00234 µM
[14] = RPMI 5 mM glucose + 10% FBS, 0.00702 µM
[15] = RPMI 5 mM glucose + 10% FBS, 0.0211 µM
[16] = RPMI 5 mM glucose + 10% FBS, 0.0632 µM
[17] = RPMI 5 mM glucose + 10% FBS, 0.19 µM
[18] = RPMI 5 mM glucose + 10% FBS, 0.569 µM
[19] = RPMI 5 mM glucose + 10% FBS, 1.71 µM
[20] = RPMI 5 mM glucose + 10% FBS, 5.12 µM
[21] = RPMI 5 mM glucose + 10% FBS, 15.4 µM
[22] = RPMI 5 mM glucose + 10% FBS, 46.1 µM
[23] = RPMI 5 mM glucose + 10% dialyzed FBS, 0.000781 µM
[24] = RPMI 5 mM glucose + 10% dialyzed FBS, 0.00234 µM
[25] = RPMI 5 mM glucose + 10% dialyzed FBS, 0.00702 µM
[26] = RPMI 5 mM glucose + 10% dialyzed FBS, 0.0211 µM
[27] = RPMI 5 mM glucose + 10% dialyzed FBS, 0.0632 µM
[28] = RPMI 5 mM glucose + 10% dialyzed FBS, 0.19 µM
[29] = RPMI 5 mM glucose + 10% dialyzed FBS, 0.569 µM
[30] = RPMI 5 mM glucose + 10% dialyzed FBS, 1.71 µM
[31] = RPMI 5 mM glucose + 10% dialyzed FBS, 5.12 µM
[32] = RPMI 5 mM glucose + 10% dialyzed FBS, 15.4 µM
[33] = RPMI 5 mM glucose + 10% dialyzed FBS, 46.1 µM

SMILES	cell viability [1]	cell viability [2]	cell viability [3]	cell viability [4]	cell viability [5]	cell viability [6]	cell viability [7]	cell viability [8]	cell viability [9]	cell viability [10]	cell viability [11]	cell viability [12]	cell viability [13]	cell viability [14]	cell viability [15]	cell viability [16]	cell viability [17]	cell viability [18]	cell viability [19]	cell viability [20]	cell viability [21]	cell viability [22]	cell viability [23]	cell viability [24]	cell viability [25]	cell viability [26]	cell viability [27]	cell viability [28]	cell viability [29]	cell viability [30]	cell viability [31]	cell viability [32]	cell viability [33]
C[S+]([O-])(=O)C1=CC=C(C=C1)C/2=C(/C(=O)OC2)C3=CC=CC=C3	113%	120%	112%	122%	126%	126%	117%	125%	123%	125%	122%	108%	125%	112%	115%	124%	133%	141%	135%	134%	132%	131%	107%	120%	115%	110%	123%	120%	120%	118%	125%	121%	109%
COc1ccc(C2CNC(=O)C2)cc1OC1CCCC1 (configuration not stated)	88.6%	100%	102%	99%	109%	105%	107%	108%	105%	99%	102%	89%	106%	91.7%	99%	101%	96.7%	105%	103%	98.4%	102%	93%	84.8%	97.6%	89.7%	103%	95.6%	97.2%	92.4%	106%	106%	109%	99%
C[S+](=O)([O-])N1CCc2c(-c3cnc(N)nc3)nc(N3CCOCC3)nc21	110%	115%	110%	120%	111%	119%	115%	93.6%	104%	107%	98.5%	105%	97.8%	114%	106%	102%	108%	103%	73%	84.8%	79.6%	71.8%	98.2%	116%	110%	119%	112%	115%	107%	85.6%	103%	85.4%	78.5%
COCCCN1CCC(NC(=O)c2cc(Cl)c(N)c3c2OCC3)CC1	114%	124%	127%	132%	132%	134%	134%	133%	146%	132%	124%																						
CN(NC(=O)CC(=O)NN(C)C(=S)c1ccccc1)C(=S)c1ccccc1	90.7%	88.6%	91.7%	88.1%	58.8%	31.4%	4.03%	3.29%	3.87%	4.02%	38.3%	75.8%	86.9%	86.6%	90.8%	56.8%	24.1%	2.71%	2.73%	3.65%	3.06%	42.1%	92.4%	89.9%	102%	101%	58.4%	20.1%	3.2%	2.92%	3.18%	3.13%	31.3%
C[C@@]12C[C@@]3(O)O[C@@H](O1)[C@]1(COC(=O)c4ccccc4)[C@H]3C[C@@]12O[C@@H]1O[C@H](CO)[C@@H](O)[C@H](O)[C@H]1O	91.3%	96%	103%	100%	110%	99.5%	103%	108%	109%	97.5%	76.7%	94.9%	99.4%	111%	111%	118%	105%	108%	116%	118%	113%	112%	89.8%	95.4%	103%	110%	105%	97.4%	108%	104%	103%	110%	101%
COc1cc2ncnc(Nc3cc(Br)c(O)c(Br)c3)c2cc1OC	98.7%	103%	106%	101%	112%	110%	109%	107%	106%	108%	96.5%	92.3%	104%	107%	114%	109%	113%	117%	118%	99.7%	106%	79.4%	95.8%	104%	108%	109%	111%	114%	114%	118%	105%	109%	94.9%
CC1(C)O[C@@H]2C[C@H]3[C@@H]4CCC5=CC(=O)C=C[C@]5(C)[C@H]4[C@@H](O)C[C@]3(C)[C@]2(C(=O)CO)O1	100%	104%	106%	91.8%	93%	90.2%	70.7%	64%	66%	65.2%	62.9%	90.3%	100%	107%	106%	82.4%	76.3%	59.2%	53%	52%	50.4%	51.5%	90.2%	98.8%	97.8%	92.4%	76.6%	72.8%	56.6%	49.8%	45.4%	40.9%	42.1%
